Measured values published in publication PMC9266561, “1,3-Benzodioxole Derivatives Improve the Anti-Tumor Efficiency of Arsenicals” (International Journal of Molecular Sciences, 2022).
Where two headings read alike, the source gives them in different places.

What was measured:
Test in all cases: cells
NB4 = assay type: cell-based; conditions: Homo sapiens
Molm-13 = assay type: cell-based; conditions: Homo sapiens
4T1 = assay type: cell-based; conditions: Mus musculus
HeLa = assay type: cell-based, human; conditions: Homo sapiens, HeLa
PBMC = assay type: cell-based, rat; conditions: Rattus norvegicus, PBMC
COS-7 = assay type: cell-based, African green monkey; conditions: Chlorocebus sabaeus
[1] = NB-4, 24 h, read-out: IC50 NB4 24 h
[2] = NB-4, 48 h, read-out: IC50 NB4 48 h
[3] = MOLM-13, 24 h, read-out: IC50 Molm
[4] = MOLM-13, 24 h, read-out: IC50 Molm 24 h
[5] = MOLM-13, 48 h, read-out: IC50 Molm
[6] = MOLM-13, 48 h, read-out: IC50 Molm 48 h
[7] = 4T1, 24 h, read-out: IC50 4T1 24 h
[8] = 4T1, 48 h, read-out: IC50 4T1 48 h
[9] = COS-7, 24 h, read-out: IC50 COS-7 24 h
[10] = COS-7, 48 h, read-out: IC50 COS-7 48 h

Structure (SMILES) | IC50 (NB4; NB-4, 24 h, read-out: IC50 NB4) [nM] | IC50 (NB4; [1]) [nM] | IC50 (NB4; NB-4, 48 h, read-out: IC50 NB4) [nM] | IC50 (NB4; [2]) [nM] | IC50 (Molm-13; [3]) [nM] | IC50 (Molm-13; [4]) [nM] | IC50 (Molm-13; [5]) [nM] | IC50 (Molm-13; [6]) [nM] | IC50 (4T1; [7]) [nM] | IC50 (4T1; [8]) [nM] | IC50 (HeLa; 24 h, read-out: IC50 HeLa 24 h) [nM] | IC50 (HeLa; 48 h, read-out: IC50 HeLa 48 h) [nM] | IC50 (PBMC; 24 h, read-out: IC50 PBMC 24 h) [nM] | IC50 (PBMC; 48 h, read-out: IC50 PBMC 48 h) [nM] | IC50 (COS-7; [9]) [nM] | IC50 (COS-7; [10]) [nM] | IC50 (4T1; 4T1, 24 h, read-out: IC50 4T1) [nM] | IC50 (4T1; 4T1, 48 h, read-out: IC50 4T1) [nM]
CC(=O)Oc1ccc(C(=O)Nc2ccc([As]3SCCCS3)cc2)cc1 [AZ2, 4-((4-(1,3,2-dithiarsinan-2-yl)phenyl)carbamoyl)phenyl acetate] | 600 ± 50 | 600 | 600 ± 30 | 600 | 1110 ± 100 | 1100 | 1010 ± 20 | 1000 | 2000 | 1000 | 800 | 500 | 5200 | 4900 | 2200 | 2100 |  | 
COc1ccc(C(=O)Nc2ccc([As]3SCCCS3)cc2)cc1OC [DAZ2, N-(4-(1,3,2-dithiarsinan-2-yl)phenyl)-3,4-dimethoxybenzamide] |  | 1710 |  | 1140 |  | 900 |  | 750 | 1500 | 1200 | 2300 | 1060 | 6200 | 5700 | 7100 | 3300 |  | 
COc1ccc(C(=O)Nc2ccccc2[As]2SCCCS2)cc1OC [DAZ5, N-(2-(1,3,2-dithiarsinan-2-yl)phenyl)-3,4-dimethoxybenzamide] |  | 800 |  | 510 |  | 450 |  | 320 | 600 | 500 | 810 | 550 | 4100 | 3500 | 1610 | 1270 |  | 
CCc1ccc(C(=O)Nc2ccc([As]3SCCCS3)cc2)cc1 [EZ2, N-(4-(1,3,2-dithiarsinan-2-yl)phenyl)-4-ethylbenzamide] |  | 410 |  | 300 |  | 1100 |  | 1020 | 1400 | 1400 | 1010 | 810 | 3700 | 2900 | 4200 | 2100 | 1400 ± 120 | 1400 ± 120
O=C(Nc1ccc([As]2SCCCS2)cc1)c1ccc(F)cc1 [FZ2, N-(4-(1,3,2-dithiarsinan-2-yl)phenyl)-4-fluorobenzamide] |  | 400 |  | 300 |  | 1200 |  | 1000 | 2300 | 2200 | 1200 | 400 | 5500 | 4700 | 3500 | 2200 |  | 
O=C(Nc1ccccc1[As]1SCCCS1)c1ccc(F)cc1 [FZ5, N-(2-(1,3,2-dithiarsinan-2-yl)phenyl)-4-fluorobenzamide] | 150 ± 100 | 150 | 150 ± 20 | 150 | 500 ± 10 | 500 | 500 ± 20 | 500 | 700 | 600 | 350 | 150 | 2400 | 1820 | 1100 | 800 |  | 
COc1cc(C(=O)Nc2ccc([As]3SCCCS3)cc2)cc(OC)c1O [HDZ2, N-(4-(1,3,2-dithiarsinan-2-yl)phenyl)-4-hydroxy-3,5-dimethoxybenzamide] |  | 800 |  | 500 | 600 ± 120 | 600 | 600 ± 120 | 600 | 1000 | 1010 | 2000 | 1010 | 5800 | 4900 | 9100 | 3500 |  | 
Cc1ccc(C(=O)Nc2ccc([As]3SCCCS3)cc2)cc1 [MZ2, N-(4-(1,3,2-dithiarsinan-2-yl)phenyl)-4-methylbenzamide] |  | 400 |  | 300 |  | 1200 |  | 800 | 1200 | 910 | 610 | 400 | 3400 | 2700 | 3400 | 1210 |  | 400 ± 110
O=C(Nc1ccc([As]2SCCCS2)cc1)c1ccc2c(c1)OC(F)(F)O2 [PFZ2, N-(4-(1,3,2-dithiarsinan-2-yl)phenyl)-2,2-difluorobenzo[d][1,3]dioxole-5-carboxamide] |  | 500 |  | 300 |  | 800 |  | 700 | 1000 | 800 | 500 | 150 | 6300 | 5700 | 6000 | 3500 |  | 
O=C(Nc1ccc([As]2SCCCS2)cc1)c1ccc2c(c1)OCO2 [PZ2, N-(4-(1,3,2-dithiarsinan-2-yl)phenyl)benzo[d][1,3]dioxole-5-carboxamide] | 850 ± 100 | 700 |  | 440 |  | 1060 |  | 750 | 2600 | 3400 | 700 | 440 | 6400 | 5300 | 4100 | 1750 | 2550 ± 220 | 3350 ± 420
O=C(Nc1ccccc1[As]1SCCCS1)c1ccc2c(c1)OCO2 [PZ5, N-(2-(1,3,2-dithiarsinan-2-yl)phenyl)benzo[d][1,3]dioxole-5-carboxamide] | 300 ± 30 | 260 | 200 ± 20 | 140 |  | 270 |  | 240 | 400 | 830 | 260 | 140 | 5000 | 4500 | 1010 | 820 |  | 
COc1cc(C(=O)Nc2ccc([As]3SCCCS3)cc2)cc(OC)c1OC [TAZ2, N-(4-(1,3,2-dithiarsinan-2-yl)phenyl)-3,4,5-trimethoxybenzamide] |  | 1000 |  | 600 |  | 1600 |  | 1500 | 3500 | 2200 | 2000 | 1040 | 7300 | 6500 | 9100 | 5200 |  | 
COc1cc(C(=O)Nc2ccccc2[As]2SCCCS2)cc(OC)c1OC [TAZ5, N-(2-(1,3,2-dithiarsinan-2-yl)phenyl)-3,4,5-trimethoxybenzamide] |  | 200 |  | 150 |  | 710 |  | 700 | 700 | 700 | 800 | 500 | 2200 | 1540 | 2000 | 1800 | 700 ± 30 | 700 ± 30
